“Also recorded” adds a separate entry of the source.
Key:
[1] = molecular target: T1, D2 I184A^EL2 mutant (Homo sapiens, UniProt P14416, I184A); assay: cell-based; assay type: cell-based; conditions: for effect of I184A mutation on β-arrestin2 recruitment: Tango
[2] = molecular target: T2, D2 dopamine receptor (D2R) (Homo sapiens, UniProt P14416); assay: cell-based; conditions: for Emax: read-out: D2 Gi/o Emax, D2 wild-type, normalized to quinpirole
[3] = molecular target: human D2Long (Homo sapiens, UniProt P14416); assay: cell-based; conditions: for Emax: read-out: D2 β-arrestin2 Emax, D2 wild-type, Tango, normalized to quinpirole
[4] = molecular target: T2, D2 dopamine receptor (D2R); assay: Bias calculation, Gi/o activity versus β-arrestin2 recruitment; assay type: cell-based; conditions: for bias factor: arrestin recruitment over Gi/o signaling, relative to quinpirole
[5] = molecular target: T1, D2 I184A^EL2 mutant; assay: Competitive binding kinetics with [3H] NMSP at I184A mutant
[6] = system: β2AR EL2.52 F194 mutants (alanine, leucine, isoleucine); assay: β-arrestin2 recruitment by Tango at β2AR EL2 mutants; assay type: cell-based

T1 sequence (P14416 whole entry I184A): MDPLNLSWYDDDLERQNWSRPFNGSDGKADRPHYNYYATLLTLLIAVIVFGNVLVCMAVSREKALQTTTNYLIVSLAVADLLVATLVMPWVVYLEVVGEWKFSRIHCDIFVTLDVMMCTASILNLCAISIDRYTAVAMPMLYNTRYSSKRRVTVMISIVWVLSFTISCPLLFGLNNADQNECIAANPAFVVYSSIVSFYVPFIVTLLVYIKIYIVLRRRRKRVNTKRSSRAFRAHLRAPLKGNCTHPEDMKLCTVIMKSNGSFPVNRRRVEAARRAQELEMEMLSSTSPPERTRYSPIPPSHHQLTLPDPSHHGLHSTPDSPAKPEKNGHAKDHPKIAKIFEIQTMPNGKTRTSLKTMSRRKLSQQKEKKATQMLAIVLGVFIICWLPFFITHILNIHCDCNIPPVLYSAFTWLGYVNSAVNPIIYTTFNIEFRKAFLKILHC
T2 sequence (P14416 whole entry): as the sequence (P14416 whole entry I184A) above, with A184I counted along it
Chain of human D2Long (P14416 whole entry): as the sequence (P14416 whole entry I184A) above, with A184I counted along it

Row | Structure (SMILES) | effect of I184A mutation on β-arrestin2 recruitment [1] | Emax [2] [%] | Emax [3] [%] | bias factor [4] | further results
1 | Clc1cccc(C2CCN(CCCOc3ccc4scnc4c3)CC2)c1Cl [UNC 9994, reference compound] | no change in arrestin recruitment efficacy | – | – | – | –
2 | Cc1cc2c(N3CCN(CCCCOc4ccc5c(c4)NC(=O)CC5)CC3)cccc2[nH]1 [compound 6, 7-(4-(4-(2-methyl-1H-indol-4-yl)piperazin-1-yl)butoxy)-3,4-dihydroquinolin-2(1H)-one] | selectively abolishing; also recorded: partial but not complete loss of arrestin recruitment efficacy | 86 | 78 | 1.3 | EC50 [2]: 0.49 nM; EC50 [3]: 0.62 nM; EC50 [1]: 2.7 nM; Emax ([1]; read-out: β-arrestin2 Emax at I184A): 40%; SFSR summary (signaling profile) ([4]; Gi/o versus arrestin activity): no preference for arrestin recruitment over G protein activation
3 | Cc1cc2c(N3CCN(CCCCOc4ccc5c(c4)NC(=O)CC5)CC3)cccc2n1C [compound 7, 7-(4-(4-(1,2-Dimethyl-1H-indol-4-yl)piperazin-1-yl)butoxy)-3,4-dihydroquinolin-2(1H)-one] | almost completely abolishes | 60 | 78 | 20 | increase in off-rate at I184A compared to D2R wild-type [5]: 6.2 fold; increase in on-rate at I184A compared to D2R wild-type [5]: 6.7 fold
4 | CC(C)NC[C@H](O)c1ccc(O)c(O)c1 [isoproterenol, (−)-isoproterenol bitartrate] | – | – | – | – | β-arrestin2 recruitment at β2AR EL2 mutants [6]: substantially reduced
5 | O=C1CCc2ccc(OCCCCN3CCCN(c4cccc(Cl)c4Cl)CC3)nc2N1 [UNC 9975, reference compound] | no change in arrestin recruitment efficacy | – | – | – | –

— publication PMC5771956 (Nature chemical biology, 2017)
